Patent publication US7728034B2, “Treating neurological disorders using selective antagonists of persistent sodium current” (Allergan, Inc., priority 2003, dated 2010)

Experiments:
[1] = Estimated plasma concentration after i.p. dosing in the AGS study; assay type: in vivo; settings: DBA, mouse, intraperitoneal, 1 mg/kg i.p., 60 minutes after dosing
[2] = test system: sound-induced seizures in DBA mice; assay: Audiogenic seizure (AGS) model in DBA/2 mice; assay type: in vivo, mouse
Excerpt: This study examined the anti-seizure efficacy of Compound 1 against to reference compounds (Diazepam and Sipatrigine) using the audiogenic mouse model as the test platform.
DBA mice are well established in the literature as a model for audiogenic seizures (AGS). This genetically based model is attractive for testing potential therapeutics in that no treatment protocol is required to create the condition. It is classified as inherited idiopathic epilepsy with no known associated organic disease.
The AGS response in these mice consists of a progressive sequence of behaviors. The latency to onset may vary from 2 to 15 seconds, and is age variant. The initial wild running phase may be divided into an early running phase that varies from 5 tp 20 seconds, followed by a wild running phase that continues for 10-20 seconds. Wild running may progress to tonic/clonic seizures, with loss of righting ability, respiratory suppression and death.
We a scoring system to quantify the effects of the test compounds on the induction of seizures. The behavioral sequence was assigned ascending numerical values (Table 1), and the highest numerical value reached by an animal was that animal's score.
Animals. Male DBA/2 mice were obtained from Jackson Laboratories at 21 day post partum. The animals were acclimated for 1 or 2 days prior to use. Individual animal weights were recorded immediately before treatment. Surviving animals were euthanized within three days of completion of testing.
Seizure Induction. Mice were placed in a test chamber (25 cm i.d.) and exposed to pure tone sound of 11 kHz at a minimum of 116 dB for approximately 60 s until a sequential seizure response, consisting of an early wild running phase, followed by generalized myoclonus and tonic flexion and extension, was obtained. Non-responders were challenged up to five times. Ten animals were obtained by this method for each intended treatment group, with a standard deviation in their maximum score of less than 25%. The acoustic stimulus signal was produced using a signal generator and projected via four high-frequency ceramic speakers mounted on the roof of the chamber. Chamber calibration was performed daily to ensure consistent sound pressure. AGS behaviors were videotaped for later analysis.
I.P. injections: The 10 animals in each treatment group were injected intra-peritoneally with the test drug in a volume of 10 mL/kg of body weight. Injections were 60 min prior to sound challenge.
Data analyses: Data were tested for normal distribution, and (when normal) were analyzed using ANOVA followed by Student's t test. When the data were not normally distributed, analysis was with the Mann-Whitney rank sum test. Significance was set at p<0.05.

[3] = biological target: T1, HEK cells expressing Nav1.3 (HEK-Nav1.3) (Homo sapiens, UniProt Q9NY46); assay: High-throughput VIPR FRET assay of persistent sodium current-dependent depolarization with K+ counter-screen; assay type: cell-based; settings: tetracaine 10 μM, FIG. 2
T1 construct: expressed in transfected cells

[4] = DBA mice, 60 minutes after dosing, Compound 1 1 mg/kg, references at predicted doses
[5] = DBA/2 mice, i.p. 60 min before sound challenge, scale 1-8, Diazepam 0.15, Sipatrigine 3, Compound 1 1 mg/kg, control 4.8 ± 1.9

T1 sequence (Q9NY46 whole entry): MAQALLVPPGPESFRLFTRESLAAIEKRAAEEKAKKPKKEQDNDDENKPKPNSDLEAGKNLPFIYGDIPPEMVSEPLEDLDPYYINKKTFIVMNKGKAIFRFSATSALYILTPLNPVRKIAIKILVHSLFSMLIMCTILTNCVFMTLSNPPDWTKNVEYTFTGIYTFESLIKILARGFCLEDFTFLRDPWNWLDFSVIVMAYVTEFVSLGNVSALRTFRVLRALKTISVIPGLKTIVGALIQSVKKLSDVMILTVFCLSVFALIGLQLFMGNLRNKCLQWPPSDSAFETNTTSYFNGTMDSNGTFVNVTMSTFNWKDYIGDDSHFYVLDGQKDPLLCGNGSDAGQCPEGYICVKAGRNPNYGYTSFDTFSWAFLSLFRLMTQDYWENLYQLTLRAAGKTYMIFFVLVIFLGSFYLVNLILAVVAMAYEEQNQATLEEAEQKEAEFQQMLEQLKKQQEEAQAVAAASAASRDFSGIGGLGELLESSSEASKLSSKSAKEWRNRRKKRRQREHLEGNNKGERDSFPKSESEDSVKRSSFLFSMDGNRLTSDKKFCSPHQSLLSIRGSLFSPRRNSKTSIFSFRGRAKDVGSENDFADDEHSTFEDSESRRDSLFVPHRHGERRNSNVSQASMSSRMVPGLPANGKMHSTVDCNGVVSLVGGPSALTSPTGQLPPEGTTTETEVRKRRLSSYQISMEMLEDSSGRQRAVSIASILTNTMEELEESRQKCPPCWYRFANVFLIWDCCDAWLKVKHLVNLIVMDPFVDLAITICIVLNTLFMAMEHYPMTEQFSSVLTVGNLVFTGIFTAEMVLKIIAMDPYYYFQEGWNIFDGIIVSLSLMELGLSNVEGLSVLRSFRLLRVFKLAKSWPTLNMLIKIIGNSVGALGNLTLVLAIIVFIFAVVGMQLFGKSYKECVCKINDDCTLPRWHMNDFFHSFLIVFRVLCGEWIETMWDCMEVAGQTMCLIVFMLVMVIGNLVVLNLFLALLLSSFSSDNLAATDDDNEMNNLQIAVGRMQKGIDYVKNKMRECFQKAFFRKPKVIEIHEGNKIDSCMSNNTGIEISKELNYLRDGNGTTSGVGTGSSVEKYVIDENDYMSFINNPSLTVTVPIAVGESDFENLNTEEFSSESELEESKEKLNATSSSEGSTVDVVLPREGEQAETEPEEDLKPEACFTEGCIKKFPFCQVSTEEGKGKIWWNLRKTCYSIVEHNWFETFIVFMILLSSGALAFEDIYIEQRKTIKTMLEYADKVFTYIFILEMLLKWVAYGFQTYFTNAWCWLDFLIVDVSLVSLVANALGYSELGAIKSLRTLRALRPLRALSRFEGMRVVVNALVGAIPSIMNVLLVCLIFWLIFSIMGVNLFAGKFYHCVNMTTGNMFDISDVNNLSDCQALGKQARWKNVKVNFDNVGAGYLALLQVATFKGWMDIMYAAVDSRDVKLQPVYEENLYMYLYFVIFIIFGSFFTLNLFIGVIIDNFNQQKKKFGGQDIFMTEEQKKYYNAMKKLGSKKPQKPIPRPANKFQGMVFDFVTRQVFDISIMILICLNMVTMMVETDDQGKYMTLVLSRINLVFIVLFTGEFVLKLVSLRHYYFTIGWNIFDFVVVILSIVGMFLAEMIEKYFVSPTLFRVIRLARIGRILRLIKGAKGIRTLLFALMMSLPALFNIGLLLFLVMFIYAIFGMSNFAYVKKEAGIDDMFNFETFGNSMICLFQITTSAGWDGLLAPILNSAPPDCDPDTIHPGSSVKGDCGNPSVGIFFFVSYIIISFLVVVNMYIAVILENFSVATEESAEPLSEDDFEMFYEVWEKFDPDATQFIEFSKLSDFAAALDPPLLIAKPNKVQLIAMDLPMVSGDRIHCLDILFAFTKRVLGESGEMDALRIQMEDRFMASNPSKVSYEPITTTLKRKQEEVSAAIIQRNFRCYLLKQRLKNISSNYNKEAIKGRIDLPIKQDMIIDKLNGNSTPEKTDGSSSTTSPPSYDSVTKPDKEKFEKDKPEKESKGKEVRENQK

Structure (SMILES): O=C(NCCCCc1ccccc1)c1cccs1 [Compound 1, thiophene-2-carboxylic acid (4-phenyl-butyl)-amide]
- concentration at 60 min [1]: ~5 µM
- behavioral/seizure response to sound-induced seizures [2, 4]: significantly reduced
- Seizure score (AGS), Mean ± s.d. [2, 5]: 3.2 ± 2.3

Structure (SMILES): CN1C(=O)CN=C(c2ccccc2)c2cc(Cl)ccc21 [Diazepam]
- Seizure score (AGS), Mean ± s.d. ([2]; mouse, in vivo): 3.1 ± 1.1
- behavioral/seizure response to sound-induced seizures ([2]; mouse, in vivo, 1 mg/kg): effective

Structure (SMILES): CN1CCN(c2ncc(-c3cc(Cl)cc(Cl)c3Cl)c(N)n2)CC1 [Sipatrigine]
- behavioral/seizure response to sound-induced seizures [2, 4]: effective
- Seizure score (AGS), Mean ± s.d. [2, 5]: 3.3 ± 1.7

Structure (SMILES): CCCCNc1ccc(C(=O)OCCN(C)C)cc1 [Tetracaine]
- K+-dependent change in Rf/Ri (depolarization, counter-screen) [3]: not
- Na+-dependent change in Rf/Ri (depolarization) [3]: inhibited
